Measured values from patent publication US20040266732A1, “Therapeutic agents, methods, and treatments” (priority 2002, published 2004).

Assays:
MCF7, NCI-H460, SF-268 = test: NCI three cell-line test, all three cell lines; type: cell-based, human; details: one concentration tested (1×10^−4 Molar)
Protocol: The testing in this Example was performed by NCI, as per their 3-cell line panel test. The results are reported as the percent of the growth of the treated cells compared to the untreated control cells. The criterion for being an effective compound and for being subjected to further testing is that the tested compound reduce the growth of any one of the three cell lines to approximately 32% or less.
The methods for conducting the test are described below in Example 3, except that the cells were exposed to a single concentration of MT103, at 1×10^−4 Molar, and colorimetric determinations were made with alamar blue (Biotechniques 21(5):780-782 (1996)).
Methodology: The NCI conducted a test of the MT103 drug against 60 human cell lines, with a minimum of five concentrations of MT103 at 10-fold dilutions. […]
Following drug addition, the plates were incubated for an additional 48 h at 37° C., 5% CO2, 95% air, and 100% relative humidity. […] Bound stain was subsequently solubilized with 10 mM trizma base, and the absorbance was read on an automated plate reader at a wavelength of 515 nm. […] Using the seven absorbance measurements (time zero, (Tz), control growth, (C), and test growth in the presence of drug at the five concentration levels (Ti)), the percentage growth was calculated at each of the drug concentrations levels. Percentage growth inhibition was calculated as: […]

HOP-92 = test: Anchorage-independent colony-forming assay; type: cell-based, human; details: for % Inhibition: colonies Day 14
Protocol: (§1) Testing was conducted employing standard tissue culture techniques and an anchorage-independent colony-forming assay.
(§2) MT103 was tested against the lung carcinoma cell lines NCI-H226, NCI-H522, and HOP-92. An anchorage-independent colony-forming assay was employed. For the experiment, the cells were harvested, centrifuged to remove the media, and suspended in Iscove's Modified Dulbecco's Medium (IMDM). Samples were taken to determine cell density. The cell count was determined with a Coulter Model Z1 cell counter and viability was measured with propidium iodide staining followed by analysis on a Coulter EPICS XL flow cytometer. Each cell line was plated at 1×10^5 cells per dish (35 mm) in IMDM with 20% FBS and 1% methylcellulose containing the appropriate concentration of test compound or DMSO control. Five concentrations of each compound and a DMSO control were tested in each of the three cell lines. The colonies per plate were counted on Day 14 after the initiation of treatment. The cell lines were propagated under sterile conditions and incubated at 37° C. in HEPA-filtered CO2 tissue culture incubators with 5% CO2 and 95% humidity. The cell line was subcultured weekly to bi-weekly and used in experiments. The test compounds were kept refrigerated under light protected conditions until dissolved in DMSO.
(§3) Anticellular effects of the compounds on the tumor line were assessed with a colony-forming assay. Briefly, cell were harvested and adjusted to 3×10^6 viable cells/mL in IMDM. Compounds (200×) were prepared in DMSO and serially diluted in DMSO to give appropriate testing concentrations. Cells (100 μL), compound or DMSO control (16.5 μL) and IMDM (183.5 μL) were added to the appropriate assay tubes (12×75 mm) containing 3 mL of complete media, IMDM with 20% FBS and 1% methylcellulose. Tubes were then vortexed and 1.1 mL of the cell suspension was added to each of two 35 mm dishes. These dishes were then incubated for 14 days in HEPA-filtered CO2 tissue culture incubators with 5% CO2 and 95% humidity. The colonies in each dish were then counted and the duplicates were averaged and reported

NCI-H226 = test: Anchorage-independent colony-forming assay; type: cell-based, human; details: for % Inhibition: colonies Day 14
Protocol: as §1, §2, §3

NCI-H522 = test: Anchorage-independent colony-forming assay; type: cell-based, human; details: for % Inhibition: colonies Day 14
Protocol: as §1, §2, §3

A549 (an adenocarcinoma) = test: Induced-tumor NOD/SCID mouse model, A549; type: in vivo, NOD/SCID mice
Protocol: In another experiment, NOD/SCID mice, (NOD.CB17-Prkdcscid/J) were treated over a time course with 60 mg/kg of MT103 or a sham treatment, and a different lung cancer cell line was used, A549 (an adenocarcinoma), instead of NCI-H226 (a squamous carcinoma).

## CC1(C)C2CC[C@@]1(CS(=O)(=O)N(C1CCCCC1)C1CCCCC1)C(O)C2 (stereo partly drawn) [MT103]
MCF7, NCI-H460, SF-268
  growth of all three cell lines: ≤ 16%
HOP-92; HOP-92, colony-forming assay
  IC50: 24.2 µM
HOP-92; HOP-92, 0.8 μM
  % Inhibition: 0%
HOP-92; HOP-92, 4 μM
  % Inhibition: 0%
HOP-92; HOP-92, 20 μM
  % Inhibition: 43.3%
HOP-92; HOP-92, 100 μM
  % Inhibition: 100%
HOP-92; HOP-92, 500 μM
  % Inhibition: 100%
HOP-92; HOP-92, see Table 5
  −logGI50 value: 4.6
NCI-H226; NCI-H226, colony-forming assay
  IC50: 8.39 µM
NCI-H226; NCI-H226, 0.8 μM
  % Inhibition: 3.1%
NCI-H226; NCI-H226, 4 μM
  % Inhibition: 36.7%
NCI-H226; NCI-H226, 20 μM
  % Inhibition: 65.6%
NCI-H226; NCI-H226, 100 μM
  % Inhibition: 92.2%
NCI-H226; NCI-H226, 500 μM
  % Inhibition: 99.7%
NCI-H226; NCI-H226, see Table 5
  −logGI50 value: 5.1
NCI-H522; NCI-H522, colony-forming assay
  IC50: 81.7 µM
NCI-H522; NCI-H522, 0.8 μM
  % Inhibition: 0%
NCI-H522; NCI-H522, 4 μM
  % Inhibition: 0%
NCI-H522; NCI-H522, 20 μM
  % Inhibition: 0%
NCI-H522; NCI-H522, 100 μM
  % Inhibition: 57.2%
NCI-H522; NCI-H522, 500 μM
  % Inhibition: 100%
NCI-H522; NCI-H522, see Table 5
  −logGI50 value: 4.1
A549 (an adenocarcinoma); 60 mg/kg versus sham
  onset of tumor growth: delayed onset of tumor growth
A549 (an adenocarcinoma); 60 mg/kg, t=30 days
  tumor size versus control: significantly smaller than the control groups
